{"source": "paper PMC4999848", "about": "(Toxins, 2016)", "key": {"[1]": {"test_system": "human cell lines (Caco-2, HepG2, T84, A498)", "test": "cells", "type": "in vitro ADME", "conditions": "read-out: % inhibition of deacetylation of 3/15ADON"}, "[2]": {"test_system": "CES in T84 cells", "test": "CES activity on pNPA, T84 cells"}, "[3]": {"test_system": "CES in A498 cells", "test": "CES activity on pNPA, A498 cells"}, "[4]": {"test_system": "CES in HepG2 cells", "test": "CES activity on pNPA, HepG2 cells"}, "[5]": {"test_system": "CES in Caco-2 cells", "test": "CES activity on pNPA, Caco-2 cells"}, "[6]": {"biological_target": "T1, recombinant human CES1 (Homo sapiens, UniProt P23141)", "T1 sequence (P23141 18-567)": "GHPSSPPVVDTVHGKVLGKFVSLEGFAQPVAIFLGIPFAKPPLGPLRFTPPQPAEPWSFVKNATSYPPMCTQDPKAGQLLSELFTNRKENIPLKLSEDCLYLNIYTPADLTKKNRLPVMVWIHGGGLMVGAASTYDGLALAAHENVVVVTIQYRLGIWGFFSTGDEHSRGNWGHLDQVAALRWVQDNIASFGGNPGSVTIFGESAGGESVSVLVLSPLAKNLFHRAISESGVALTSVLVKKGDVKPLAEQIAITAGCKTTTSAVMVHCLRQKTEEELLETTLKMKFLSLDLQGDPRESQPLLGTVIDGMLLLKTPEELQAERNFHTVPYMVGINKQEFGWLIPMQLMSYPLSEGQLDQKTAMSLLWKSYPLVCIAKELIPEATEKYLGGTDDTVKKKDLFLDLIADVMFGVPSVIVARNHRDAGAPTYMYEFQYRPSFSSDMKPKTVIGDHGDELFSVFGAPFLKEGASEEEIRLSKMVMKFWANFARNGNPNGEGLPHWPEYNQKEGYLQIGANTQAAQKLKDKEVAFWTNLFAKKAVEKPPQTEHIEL", "test": "CES activity on pNPA, recombinant CES1"}, "[7]": {"test_system": "CES in S9 Liver", "test": "CES activity on pNPA, liver S9 fraction"}, "[8]": {"test_system": "CES in S9 Kidney", "test": "CES activity on pNPA, kidney S9 fraction"}, "[9]": {"test_system": "CES in S9 Intestine", "test": "CES activity on pNPA, intestine S9 fraction"}, "[10]": {"biological_target": "T2, recombinant human CES2 (Homo sapiens, UniProt O00748)", "T2 sequence (O00748 27-559)": "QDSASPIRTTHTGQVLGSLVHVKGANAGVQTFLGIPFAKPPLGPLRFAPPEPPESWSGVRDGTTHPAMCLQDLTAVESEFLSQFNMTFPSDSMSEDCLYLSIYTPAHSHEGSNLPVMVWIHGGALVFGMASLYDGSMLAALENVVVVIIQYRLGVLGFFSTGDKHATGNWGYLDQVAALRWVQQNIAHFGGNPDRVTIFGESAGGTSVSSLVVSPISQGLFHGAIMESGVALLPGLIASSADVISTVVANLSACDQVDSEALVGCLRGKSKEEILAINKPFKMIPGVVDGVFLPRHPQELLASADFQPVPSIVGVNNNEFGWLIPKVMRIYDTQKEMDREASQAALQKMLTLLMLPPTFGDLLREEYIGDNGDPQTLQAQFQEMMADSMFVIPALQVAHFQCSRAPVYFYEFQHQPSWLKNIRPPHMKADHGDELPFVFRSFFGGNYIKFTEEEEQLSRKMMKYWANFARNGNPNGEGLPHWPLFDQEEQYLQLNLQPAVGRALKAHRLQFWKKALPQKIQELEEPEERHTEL", "test": "CES activity on pNPA, recombinant CES2", "conditions": "CES2, pNPA 1 mM"}}}
{"smiles": "O=C(C(=O)c1ccccc1)c1ccccc1", "note": "[benzil]", "values": [{"measurement": "inhibition at 100 µM", "setting": "[1]", "value": "10 to 20", "unit": "%"}, {"measurement": "% of Inhibition of pNPA deacetylation", "setting": "[2]; T84, benzil 100 μM", "value": "85 ± 14", "unit": "%"}, {"measurement": "% of Inhibition of pNPA deacetylation", "setting": "[3]; A498, benzil 100 μM", "value": "83 ± 16", "unit": "%"}, {"measurement": "% of Inhibition of pNPA deacetylation", "setting": "[4]; HepG2, benzil 100 μM", "value": "87 ± 12", "unit": "%"}, {"measurement": "% of Inhibition of pNPA deacetylation", "setting": "[5]; Caco-2, benzil 100 μM", "value": "83 ± 16", "unit": "%"}, {"measurement": "inhibition at 100 µM", "setting": "[6]; read-out: % of Inhibition of pNPA deacetylation", "value": "96 ± 3.3", "unit": "%"}, {"measurement": "% of Inhibition of pNPA deacetylation", "setting": "[7]; benzil 100 μM", "value": "85 ± 14", "unit": "%"}, {"measurement": "% of Inhibition of pNPA deacetylation", "setting": "[8]; benzil 100 μM", "value": "88 ± 11", "unit": "%"}, {"measurement": "% of Inhibition of pNPA deacetylation", "setting": "[9]; benzil 100 μM", "value": "84 ± 15", "unit": "%"}]}
{"smiles": "CC(=O)Oc1ccc([N+](=O)[O-])cc1", "note": "[pNPA, para-nitrophenyl acetate]", "values": [{"measurement": "Specific activity on pNPA, Without Benzil", "setting": "[2]; T84, pNPA 1 mM, 37 °C", "value": "6.6 ± 0.7 nmol of pNPA hydrolyzed per minute and per mg of protein"}, {"measurement": "Specific activity on pNPA, With Benzil", "setting": "[2]; T84, pNPA 1 mM, benzil 100 μM", "value": "0.9 ± 0.2 nmol of pNPA hydrolyzed per minute and per mg of protein"}, {"measurement": "Specific activity on pNPA, With Benzil", "setting": "[3]; A498, pNPA 1 mM, benzil 100 μM", "value": "1.1 ± 0.1 nmol of pNPA hydrolyzed per minute and per mg of protein"}, {"measurement": "Specific activity on pNPA, Without Benzil", "setting": "[4]; HepG2, pNPA 1 mM, 37 °C", "value": "15.7 ± 1.1 nmol of pNPA hydrolyzed per minute and per mg of protein"}, {"measurement": "Specific activity on pNPA, With Benzil", "setting": "[4]; HepG2, pNPA 1 mM, benzil 100 μM", "value": "2.1 ± 0.1 nmol of pNPA hydrolyzed per minute and per mg of protein"}, {"measurement": "Specific activity on pNPA, Without Benzil", "setting": "[5]; Caco-2, pNPA 1 mM, 37 °C", "value": "6.2 ± 1.8 nmol of pNPA hydrolyzed per minute and per mg of protein"}, {"measurement": "Specific activity on pNPA, With Benzil", "setting": "[5]; Caco-2, pNPA 1 mM, benzil 100 μM", "value": "1.1 ± 0.1 nmol of pNPA hydrolyzed per minute and per mg of protein"}, {"measurement": "Specific activity on pNPA, Without Benzil", "setting": "[6]; CES1, pNPA 1 mM, 37 °C", "value": "4965 ± 197 nmol of pNPA hydrolyzed per minute and per mg of protein"}, {"measurement": "Specific activity on pNPA, With Benzil", "setting": "[6]; CES1, pNPA 1 mM, benzil 100 μM", "value": "167 ± 10 nmol of pNPA hydrolyzed per minute and per mg of protein"}, {"measurement": "Specific activity on pNPA, Without Benzil", "setting": "[10]; 37 °C", "value": "5671 ± 207 nmol of pNPA hydrolyzed per minute and per mg of protein"}, {"measurement": "Specific activity on pNPA, With Benzil", "setting": "[10]; benzil 100 μM", "value": "214 ± 43 nmol of pNPA hydrolyzed per minute and per mg of protein"}, {"measurement": "Specific activity on pNPA, Without Benzil", "setting": "[7]; pNPA 1 mM, 37 °C", "value": "142 ± 4.6 nmol of pNPA hydrolyzed per minute and per mg of protein"}, {"measurement": "Specific activity on pNPA, With Benzil", "setting": "[7]; pNPA 1 mM, benzil 100 μM", "value": "21 ± 2.2 nmol of pNPA hydrolyzed per minute and per mg of protein"}, {"measurement": "Specific activity on pNPA, Without Benzil", "setting": "[8]; pNPA 1 mM, 37 °C", "value": "69 ± 7.6 nmol of pNPA hydrolyzed per minute and per mg of protein"}, {"measurement": "Specific activity on pNPA, With Benzil", "setting": "[8]; pNPA 1 mM, benzil 100 μM", "value": "8.1 ± 1.4 nmol of pNPA hydrolyzed per minute and per mg of protein"}, {"measurement": "Specific activity on pNPA, Without Benzil", "setting": "[9]; pNPA 1 mM, 37 °C", "value": "55 ± 9.9 nmol of pNPA hydrolyzed per minute and per mg of protein"}, {"measurement": "Specific activity on pNPA, With Benzil", "setting": "[9]; pNPA 1 mM, benzil 100 μM", "value": "8.3 ± 2.7 nmol of pNPA hydrolyzed per minute and per mg of protein"}]}
